# In PubChem BioAssay (NCI):
#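 Protocol summary: plate cells (96-well), add compound at 5 concentrations, incubate 48 h, interpolate endpoints linearly. GI50 marks 50% less growth. Definition used: TGI = concentration required for complete inhibition of growth.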
# Tested on: SK-MEL-28 melanoma
# Assay: NCI-60 cell line screen, 48 h
SMILES,TGI,GI50
OC/C=C(\I)CCCOCOCc1ccccc1,> 100 µM,–
CCc1ccc(Nc2ccc([N+](=O)[O-])cc2[N+](=O)[O-])cc1,> 100 µM,–
COC(=O)c1cc(C)c(C)c2c1NC(=O)CNC2=O,> 100 µM,–
COc1cccc(N2C(=O)[C@H]3CC(C)c4c([nH]c5ccccc45)[C@H]3C2=O)c1 (stereo partly specified),> 100 µM,–
N#CCC(=O)NC1C2CC3CC(C2)CC1C3 (stereo unspecified),43.3 µM,–
N.N.O=C([O-])P(=O)([O-])[O-].[Na+].[Pt+4],> 100 µM,> 100 µM

# Tested on: SK-MEL-5 melanoma
# Assay: NCI-60 cell line screen, 48 h
SMILES,TGI,GI50
OC/C=C(\I)CCCOCOCc1ccccc1,54.5 µM,–
CCc1ccc(Nc2ccc([N+](=O)[O-])cc2[N+](=O)[O-])cc1,> 100 µM,–
COc1cccc(N2C(=O)[C@H]3CC(C)c4c([nH]c5ccccc45)[C@H]3C2=O)c1 (stereo partly specified),> 100 µM,–
N#CCC(=O)NC1C2CC3CC(C2)CC1C3 (stereo unspecified),27.9 µM,–
CCO/N=C(/N)c1ncn(Cc2ccccc2)c1NCC(OCC)OCC,> 100 µM,–
N.N.O=C([O-])P(=O)([O-])[O-].[Na+].[Pt+4],> 100 µM,> 100 µM

# Tested on: SK-OV-3 ovarian
# Assay: NCI-60 cell line screen, 48 h
SMILES,TGI,GI50
OC/C=C(\I)CCCOCOCc1ccccc1,> 100 µM,–
CCc1ccc(Nc2ccc([N+](=O)[O-])cc2[N+](=O)[O-])cc1,> 100 µM,–
COc1cccc(N2C(=O)[C@H]3CC(C)c4c([nH]c5ccccc45)[C@H]3C2=O)c1 (stereo partly specified),72.2 µM,–
N#CCC(=O)NC1C2CC3CC(C2)CC1C3 (stereo unspecified),78.6 µM,–
CCO/N=C(/N)c1ncn(Cc2ccccc2)c1NCC(OCC)OCC,> 100 µM,–
N.N.O=C([O-])P(=O)([O-])[O-].[Na+].[Pt+4],> 100 µM,> 100 µM

# Tested on: SN12C renal
# Assay: NCI-60 cell line screen, 48 h
SMILES,TGI,GI50
OC/C=C(\I)CCCOCOCc1ccccc1,> 100 µM,–
COC(=O)c1cc(C)c(C)c2c1NC(=O)CNC2=O,> 100 µM,–
COc1cccc(N2C(=O)[C@H]3CC(C)c4c([nH]c5ccccc45)[C@H]3C2=O)c1 (stereo partly specified),> 100 µM,–
N#CCC(=O)NC1C2CC3CC(C2)CC1C3 (stereo unspecified),31.5 µM,–
CCO/N=C(/N)c1ncn(Cc2ccccc2)c1NCC(OCC)OCC,> 100 µM,–
N.N.O=C([O-])P(=O)([O-])[O-].[Na+].[Pt+4],> 100 µM,> 100 µM

# Tested on: SNB-19 CNS
# Assay: NCI-60 cell line screen, 48 h
SMILES,TGI,GI50
OC/C=C(\I)CCCOCOCc1ccccc1,> 100 µM,–
COc1cccc(N2C(=O)[C@H]3CC(C)c4c([nH]c5ccccc45)[C@H]3C2=O)c1 (stereo partly specified),> 100 µM,–
N#CCC(=O)NC1C2CC3CC(C2)CC1C3 (stereo unspecified),32.5 µM,–
CCO/N=C(/N)c1ncn(Cc2ccccc2)c1NCC(OCC)OCC,> 100 µM,–
N.N.O=C([O-])P(=O)([O-])[O-].[Na+].[Pt+4],> 100 µM,> 100 µM

# Tested on: SNB-75 CNS
# Assay: NCI-60 cell line screen, 48 h
SMILES,TGI,GI50
OC/C=C(\I)CCCOCOCc1ccccc1,> 100 µM,–
CCc1ccc(Nc2ccc([N+](=O)[O-])cc2[N+](=O)[O-])cc1,> 100 µM,–
COC(=O)c1cc(C)c(C)c2c1NC(=O)CNC2=O,> 100 µM,–
COc1cccc(N2C(=O)[C@H]3CC(C)c4c([nH]c5ccccc45)[C@H]3C2=O)c1 (stereo partly specified),42.1 µM,–
N#CCC(=O)NC1C2CC3CC(C2)CC1C3 (stereo unspecified),33.5 µM,–
CCO/N=C(/N)c1ncn(Cc2ccccc2)c1NCC(OCC)OCC,> 100 µM,–
N.N.O=C([O-])P(=O)([O-])[O-].[Na+].[Pt+4],> 100 µM,> 100 µM

# Tested on: SNB-78 CNS
# Assay: NCI-60 cell line screen, 48 h
SMILES,TGI,GI50
OC/C=C(\I)CCCOCOCc1ccccc1,> 100 µM,–
CCc1ccc(Nc2ccc([N+](=O)[O-])cc2[N+](=O)[O-])cc1,> 100 µM,–
COC(=O)c1cc(C)c(C)c2c1NC(=O)CNC2=O,> 100 µM,–
COc1cccc(N2C(=O)[C@H]3CC(C)c4c([nH]c5ccccc45)[C@H]3C2=O)c1 (stereo partly specified),> 100 µM,–
N#CCC(=O)NC1C2CC3CC(C2)CC1C3 (stereo unspecified),43 µM,–
CCO/N=C(/N)c1ncn(Cc2ccccc2)c1NCC(OCC)OCC,> 100 µM,–
N.N.O=C([O-])P(=O)([O-])[O-].[Na+].[Pt+4],> 100 µM,> 100 µM

# Tested on: SR leukemia
# Assay: NCI-60 cell line screen, 48 h
row,SMILES,TGI
1,COC(=O)c1cc(C)c(C)c2c1NC(=O)CNC2=O,> 100 µM

# Tested on: SW-620 colon
# Assay: NCI-60 cell line screen, 48 h
SMILES,TGI,GI50
OC/C=C(\I)CCCOCOCc1ccccc1,> 100 µM,–
CCc1ccc(Nc2ccc([N+](=O)[O-])cc2[N+](=O)[O-])cc1,> 100 µM,–
COC(=O)c1cc(C)c(C)c2c1NC(=O)CNC2=O,> 100 µM,–
N#CCC(=O)NC1C2CC3CC(C2)CC1C3 (stereo unspecified),51.7 µM,–
CCO/N=C(/N)c1ncn(Cc2ccccc2)c1NCC(OCC)OCC,> 100 µM,–
N.N.O=C([O-])P(=O)([O-])[O-].[Na+].[Pt+4],> 100 µM,> 100 µM

# Tested on: TK-10 renal
# Assay: NCI-60 cell line screen, 48 h
SMILES,TGI,GI50
OC/C=C(\I)CCCOCOCc1ccccc1,> 100 µM,–
CCc1ccc(Nc2ccc([N+](=O)[O-])cc2[N+](=O)[O-])cc1,> 100 µM,–
COc1cccc(N2C(=O)[C@H]3CC(C)c4c([nH]c5ccccc45)[C@H]3C2=O)c1 (stereo partly specified),> 100 µM,–
N#CCC(=O)NC1C2CC3CC(C2)CC1C3 (stereo unspecified),46.2 µM,–
CCO/N=C(/N)c1ncn(Cc2ccccc2)c1NCC(OCC)OCC,> 100 µM,–
N.N.O=C([O-])P(=O)([O-])[O-].[Na+].[Pt+4],> 100 µM,> 100 µM

# Tested on: U251 CNS
# Assay: NCI-60 cell line screen, 48 h
SMILES,TGI,GI50
OC/C=C(\I)CCCOCOCc1ccccc1,64 µM,–
CCc1ccc(Nc2ccc([N+](=O)[O-])cc2[N+](=O)[O-])cc1,> 100 µM,–
COC(=O)c1cc(C)c(C)c2c1NC(=O)CNC2=O,> 100 µM,–
COc1cccc(N2C(=O)[C@H]3CC(C)c4c([nH]c5ccccc45)[C@H]3C2=O)c1 (stereo partly specified),> 100 µM,–
N#CCC(=O)NC1C2CC3CC(C2)CC1C3 (stereo unspecified),29.8 µM,–
CCO/N=C(/N)c1ncn(Cc2ccccc2)c1NCC(OCC)OCC,> 100 µM,–
N.N.O=C([O-])P(=O)([O-])[O-].[Na+].[Pt+4],> 100 µM,> 100 µM

# Tested on: UACC-257 melanoma
# Assay: NCI-60 cell line screen, 48 h
SMILES,TGI,GI50
CCc1ccc(Nc2ccc([N+](=O)[O-])cc2[N+](=O)[O-])cc1,> 100 µM,–
COC(=O)c1cc(C)c(C)c2c1NC(=O)CNC2=O,> 100 µM,–
COc1cccc(N2C(=O)[C@H]3CC(C)c4c([nH]c5ccccc45)[C@H]3C2=O)c1 (stereo partly specified),> 100 µM,–
N#CCC(=O)NC1C2CC3CC(C2)CC1C3 (stereo unspecified),47.2 µM,–
CCO/N=C(/N)c1ncn(Cc2ccccc2)c1NCC(OCC)OCC,> 100 µM,–
N.N.O=C([O-])P(=O)([O-])[O-].[Na+].[Pt+4],> 100 µM,> 100 µM

# Tested on: UACC-62 melanoma
# Assay: NCI-60 cell line screen, 48 h
SMILES,TGI,GI50
OC/C=C(\I)CCCOCOCc1ccccc1,> 100 µM,–
CCc1ccc(Nc2ccc([N+](=O)[O-])cc2[N+](=O)[O-])cc1,> 100 µM,–
COC(=O)c1cc(C)c(C)c2c1NC(=O)CNC2=O,> 100 µM,–
COc1cccc(N2C(=O)[C@H]3CC(C)c4c([nH]c5ccccc45)[C@H]3C2=O)c1 (stereo partly specified),> 100 µM,–
N#CCC(=O)NC1C2CC3CC(C2)CC1C3 (stereo unspecified),28.7 µM,–
CCO/N=C(/N)c1ncn(Cc2ccccc2)c1NCC(OCC)OCC,> 100 µM,–
N.N.O=C([O-])P(=O)([O-])[O-].[Na+].[Pt+4],> 100 µM,> 100 µM

# Tested on: UO-31 renal
# Assay: NCI-60 cell line screen, 48 h
SMILES,TGI,GI50
OC/C=C(\I)CCCOCOCc1ccccc1,> 100 µM,–
CCc1ccc(Nc2ccc([N+](=O)[O-])cc2[N+](=O)[O-])cc1,> 100 µM,–
COC(=O)c1cc(C)c(C)c2c1NC(=O)CNC2=O,91.6 µM,–
COc1cccc(N2C(=O)[C@H]3CC(C)c4c([nH]c5ccccc45)[C@H]3C2=O)c1 (stereo partly specified),> 100 µM,–
N#CCC(=O)NC1C2CC3CC(C2)CC1C3 (stereo unspecified),> 100 µM,–
CCO/N=C(/N)c1ncn(Cc2ccccc2)c1NCC(OCC)OCC,> 100 µM,–
N.N.O=C([O-])P(=O)([O-])[O-].[Na+].[Pt+4],> 100 µM,> 100 µM

# Tested on: XF 498 CNS
# Assay: NCI-60 cell line screen, 48 h
row,SMILES,TGI
1,OC/C=C(\I)CCCOCOCc1ccccc1,45.8 µM
2,CCc1ccc(Nc2ccc([N+](=O)[O-])cc2[N+](=O)[O-])cc1,> 100 µM
3,COC(=O)c1cc(C)c(C)c2c1NC(=O)CNC2=O,> 100 µM
4,COc1cccc(N2C(=O)[C@H]3CC(C)c4c([nH]c5ccccc45)[C@H]3C2=O)c1 (stereo partly specified),> 100 µM
5,CCO/N=C(/N)c1ncn(Cc2ccccc2)c1NCC(OCC)OCC,> 100 µM
